Data on 22 molecules can be found in patent publication US20240415918A1, “Polypeptide and its use as a CCK receptor agonist/antagonist” (Centre for Regenerative Medicine & Health, Hong Kong …, priority 2021, published 2024).

As a reminder, the EC50 is the concentration that produces a half-maximal response.

Where a SMILES comes first, the peptide text is derived from it. [ ]: non-standard residue; d: D form. Phe(3-Br) = N[C@@H](Cc1cccc(Br)c1)C(=O)O; NMeNle = CCCC[C@H](NC)C(=O)O

Experiment [1] addresses T1, CCK-B receptors (CHO-CCK) (Homo sapiens, UniProt P32239).
T1 construct: expressed in transfected cells; host or cells: CHO (CHO-CCK model cells)
T1 sequence (P32239 1-447): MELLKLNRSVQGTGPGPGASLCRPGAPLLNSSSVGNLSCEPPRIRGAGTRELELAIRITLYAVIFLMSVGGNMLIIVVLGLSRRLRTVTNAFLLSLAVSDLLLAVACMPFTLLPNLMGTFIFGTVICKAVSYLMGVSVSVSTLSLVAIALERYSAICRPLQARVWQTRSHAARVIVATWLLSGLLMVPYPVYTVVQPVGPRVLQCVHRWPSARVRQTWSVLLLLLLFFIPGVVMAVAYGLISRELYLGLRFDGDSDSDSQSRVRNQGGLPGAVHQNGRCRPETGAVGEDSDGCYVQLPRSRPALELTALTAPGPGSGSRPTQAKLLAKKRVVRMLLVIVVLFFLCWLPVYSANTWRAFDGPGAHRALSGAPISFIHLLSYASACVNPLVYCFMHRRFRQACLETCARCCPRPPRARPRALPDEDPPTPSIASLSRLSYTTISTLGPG
In words: Calcium flux (Fluo-8) agonist test on CHO-CCK model cells. The experiment is classed as cell-based. The conditions noted are these: for EC50: CHO-CCK cells, compound alone, 100% = 20 nM CCK8; for Agonistic Activity (%) at 10 μM: compound at 10 μM, percentage of signal of 20 nM CCK8 alone. In a few lines: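 Agonist-mode Fluo-8 calcium flux read on CHO-CCK cells after dye loading 30 min at 37 °C plus 30 min at room temperature.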

Experiment [2] concerns the target T1, CCK-B receptors (CHO-CCK). In words: Calcium flux (Fluo-8) antagonist test on CHO-CCK model cells in presence of CCK8. It is filed as cell-based. As for the experimental part:
The compound was formulated to a 10 mM mother liquor with DMSO, and then diluted into a series of 9 concentrations with a 3-fold gradient to form a 1000× stock solution. […] Prepare 1×Fluo-8 analysis buffer: mix 9 mL of HHBS, 1 mL of 10× Pluronic F127 Plus and 20 μL of Fluo-8 thoroughly for later use. • 3. Add Fluo-8 dye working solution to the cell plate, 100 μL/well. First incubate in a 37° C. incubator for 30 min, and then take it out and incubate at room temperature in the dark for 30 min. • 4. In the process of incubating cells, the compounds to be detected were prepared with HHBS. • 5. […] The agonism/antagonism EC50 of the compound can be obtained by plotting the fitting curve with the agonism/antagonism percentage as Y-axis and the concentration of the compound as X-axis.
On the technique in general: A change in cytosolic calcium serves as a functional read-out for many receptors and channels.

Where [3] appears, read: compound together with 10 nM CCK8.
[4] abbreviates: compound together with 10 nM CCK8, bound in μM.

For the molecule `C[S+]([O-])CC[C@H](NC(=O)[C@H](N)Cc1c[nH]c2ccccc12)C(=O)N[C@@H](CC(=O)O)C(=O)N[C@@H](Cc1cccc(I)c1)C(N)=O` (stereo partly drawn) [HT-45, D-Trp-Met(O)-Asp-Phe(3-I)-NH2], in experiment [1], the EC50 came to 4.38 µM and the “Agonistic Activity (%) at 10 μM” value was found to be 58.98%. Moreover, the half-maximal effective concentration (EC50) in experiment [2] (setting [3]) was 3.37 µM.

As to `C[S+]([O-])CC[C@H](NC(=O)[C@H](N)Cc1c[nH]c2ccccc12)C(=O)N[C@@H](CC(=O)O)C(=O)N[C@@H](Cc1cccc(Br)c1)C(N)=O` (stereo partly drawn) [HT-46, D-Trp-Met(O)-Asp-Phe(3-Br)-NH2], the EC50 in experiment [1] was found to be 3.8 µM; in experiment [2] (setting [3]) it was 6.24 µM. In addition, in experiment [1], the “Agonistic Activity (%) at 10 μM” value was 53.69%.

With `C[S+]([O-])CC[C@H](NC(=O)[C@H](N)Cc1c[nH]c2ccccc12)C(=O)N[C@@H](CC(=O)O)C(=O)N[C@@H](Cc1ccc(F)cc1)C(N)=O` (stereo partly drawn) [HT-53, D-Trp-Met(O)-Asp-Phe(4-F)-NH2], the “Agonistic Activity (%) at 10 μM” value in experiment [1] stood at 30.00%. The EC50 in experiment [2] (setting [3]) was 8.88 µM.

On to `C[S+]([O-])CC[C@H](NC(=O)[C@H](N)Cc1c[nH]c2ccccc12)C(=O)N[C@@H](CC(=O)O)C(=O)N[C@@H](Cc1cc(Cl)cc(Cl)c1)C(N)=O` (stereo partly drawn) [HT-55, D-Trp-Met(O)-Asp-Phe(3,5-DiCl)-NH2], for which the EC50 in experiment [1] was 1.65 µM; in experiment [2] (setting [3]), 1.79 µM. Besides, the “Agonistic Activity (%) at 10 μM” value in experiment [1] is 62.28%.

Turning to `CS(=O)(=O)CC[C@H](NC(=O)[C@H](N)Cc1c[nH]c2ccccc12)C(=O)N[C@@H](CC(=O)O)C(=O)N[C@@H](Cc1ccccc1F)C(N)=O` [HT-59, D-Trp-Met(O2)-Asp-Phe(2-F)-NH2], the “Agonistic Activity (%) at 10 μM” value in experiment [1] turned out to be 39.73%. The EC50 in experiment [2] (setting [3]) is 9.22 µM.

Consider `CS(=O)(=O)CC[C@H](NC(=O)[C@H](N)Cc1c[nH]c2ccccc12)C(=O)N[C@@H](CC(=O)O)C(=O)N[C@@H](Cc1cccc(Cl)c1)C(N)=O` [HT-60, D-Trp-Met(O2)-Asp-Phe(3-Cl)-NH2], for which, in experiment [1], the EC50 came to 9.24 µM and the “Agonistic Activity (%) at 10 μM” value is on record as 50.72%. The EC50 in experiment [2] (setting [3]) was determined as 6.61 µM.

On to `CS(=O)(=O)CC[C@H](NC(=O)[C@H](N)Cc1c[nH]c2ccccc12)C(=O)N[C@@H](CC(=O)O)C(=O)N[C@@H](Cc1cccc(F)c1)C(N)=O` [HT-61, D-Trp-Met(O2)-Asp-Phe(3-F)-NH2], for which, in experiment [1], the “Agonistic Activity (%) at 10 μM” value turned out to be 36.66%. The EC50 in experiment [2] (setting [4]) was greater than 10 µM.

As for `CS(=O)(=O)CC[C@H](NC(=O)[C@H](N)Cc1c[nH]c2ccccc12)C(=O)N[C@@H](CC(=O)O)C(=O)N[C@@H](Cc1cccc(Br)c1)C(N)=O` [HT-63, D-Trp-Met(O2)-Asp-Phe(3-Br)-NH2], the EC50 in experiment [1] is 6.05 µM; in experiment [2] (setting [3]) it was 7.5 µM. Moreover, the “Agonistic Activity (%) at 10 μM” value in experiment [1] is 48.46%.

As to `CS(=O)(=O)CC[C@H](NC(=O)[C@H](N)Cc1c[nH]c2ccccc12)C(=O)N[C@@H](CC(=O)O)C(=O)N[C@@H](Cc1ccc(N=[N+]=[N-])cc1)C(N)=O` [HT-65, D-Trp-Met(O2)-Asp-Phe(4-N3)-NH2], in experiment [1], the “Agonistic Activity (%) at 10 μM” value was determined as 8.35%. Moreover, in experiment [2] (setting [4]), the EC50 was greater than 10 µM.

For `CS(=O)(=O)CC[C@H](NC(=O)[C@H](N)Cc1c[nH]c2ccccc12)C(=O)N[C@@H](CC(=O)O)C(=O)N[C@@H](Cc1cc(Cl)cc(Cl)c1)C(N)=O` [HT-72, D-Trp-Met(O2)-Asp-Phe(3,5-DiCl)-NH2], in experiment [1], the EC50 was found to be 1.51 µM and the “Agonistic Activity (%) at 10 μM” value was 82.71%. Also, the EC50 in experiment [2] (setting [3]) stood at 2.62 µM.

As to `CS(=O)(=O)CC[C@H](NC(=O)[C@H](N)Cc1c[nH]c2ccccc12)C(=O)N[C@@H](CC(=O)O)C(=O)N[C@@H](Cc1cc(F)cc(F)c1)C(N)=O` [HT-73, D-Trp-Met(O2)-Asp-Phe(3,5-DIF)-NH2], the results for the EC50 in experiment [1] and in experiment [2] (setting [3]) were 12.6 µM and 8.82 µM, respectively. For the same molecule, in experiment [1], the “Agonistic Activity (%) at 10 μM” value is 55.41%.

For `CS(=O)(=O)CC[C@H](NC(=O)[C@H](N)Cc1c[nH]c2ccccc12)C(=O)N[C@@H](CC(=O)O)C(=O)N[C@@H](Cc1cc(F)c(F)c(F)c1)C(N)=O` [HT-74, D-Trp-Met(O2)-Asp-Phe(3,4,5-TriF)-NH2], the EC50 stood at 11 µM in experiment [1] and 8.42 µM in experiment [2] (setting [3]). For the same molecule, the “Agonistic Activity (%) at 10 μM” value in experiment [1] came to 55.05%.

For `COC(=O)C[C@H](NC(=O)[C@H](CCSC)NC(=O)[C@H](N)Cc1c[nH]c2ccccc12)C(=O)N[C@@H](Cc1cccc(F)c1)C(N)=O` [HT-78, D-Trp-Met-Asp(Ome)-Phe(3-F)-NH2], the “Agonistic Activity (%) at 10 μM” value in experiment [1] came to 20.83%. In experiment [2] (setting [4]), the EC50 was roughly 10 µM.

As for `COC(=O)C[C@H](NC(=O)[C@H](CCSC)NC(=O)[C@H](N)Cc1c[nH]c2ccccc12)C(=O)N[C@@H](Cc1cccc(I)c1)C(N)=O` [HT-79, D-Trp-Met-Asp(Ome)-Phe(3-I)-NH2], in experiment [1], the concentration for a half-maximal effect (EC50) worked out at 2.29 µM and the “Agonistic Activity (%) at 10 μM” value was 38.37%. Also, in experiment [2] (setting [3]), the EC50 was determined as 1.99 µM.

For the molecule `COC(=O)C[C@H](NC(=O)[C@H](CCSC)NC(=O)[C@H](N)Cc1c[nH]c2ccccc12)C(=O)N[C@@H](Cc1cccc(Br)c1)C(N)=O` [HT-80, D-Trp-Met-Asp(Ome)-Phe(3-Br)-NH2], in experiment [1], the EC50 stood at 0.572 µM and the “Agonistic Activity (%) at 10 μM” value is recorded as 57.83%. In experiment [2] (setting [3]), the EC50 worked out at 0.807 µM.

As to `COC(=O)C[C@H](NC(=O)[C@H](CCSC)NC(=O)[C@H](N)Cc1c[nH]c2ccccc12)C(=O)N[C@@H](Cc1ccc(F)cc1)C(N)=O` [HT-87, D-Trp-Met-Asp(Ome)-Phe(4-F)-NH2], the “Agonistic Activity (%) at 10 μM” value in experiment [1] was found to be 28.73%. Further, in experiment [2] (setting [3]), the EC50 came out at 9.98 µM.

On to `COC(=O)C[C@H](NC(=O)[C@H](CCSC)NC(=O)[C@H](N)Cc1c[nH]c2ccccc12)C(=O)N[C@@H](Cc1cc(Cl)cc(Cl)c1)C(N)=O` [HT-89, D-Trp-Met-Asp(Ome)-Phe(3,5-DiCl)-NH2], for which, in experiment [1], the EC50 was 3.21 µM and the “Agonistic Activity (%) at 10 μM” value is 44.86%. Besides, in experiment [2] (setting [3]), the EC50 stood at 3.62 µM.

On to `COC(=O)C[C@H](NC(=O)[C@H](CCSC)NC(=O)[C@H](N)Cc1c[nH]c2ccccc12)C(=O)N[C@@H](Cc1cc(F)cc(F)c1)C(N)=O` [HT-90, D-Trp-Met-Asp(Ome)-Phe(3,5-DiF)-NH2], for which, in experiment [1], the EC50 turned out to be 9.3 µM and the “Agonistic Activity (%) at 10 μM” value was 59.76%. Also, the EC50 in experiment [2] (setting [3]) was 5.91 µM.

For the molecule `CCCC[C@@H](C(=O)N[C@@H](CC(=O)O)C(=O)N[C@@H](Cc1cccc(Br)c1)C(N)=O)N(C)C(=O)[C@@H](Cc1c[nH]c2ccccc12)NC(C)=O` [HT-179, Ac-D-Trp-(N-Me-Nle)-Asp-Phe(3-Br)-NH2] (Ac-[dW][NMeNle]D[Phe(3-Br)]-NH2), the EC50 in experiment [1] was 1.63 µM; in experiment [2] (setting [4]), greater than 10 µM.

As to `CSCC[C@H](NC(=O)[C@@H](Cc1ccccc1)NC(C)=O)C(=O)N[C@@H](CC(=O)O)C(=O)N[C@@H](Cc1cccc(Br)c1)C(N)=O` [HT-180, Ac-D-Phe-Met-Asp-Phe(3-Br)-NH2] (Ac-[dF]MD[Phe(3-Br)]-NH2), the EC50 in experiment [1] stood at 0.447 µM; in experiment [2] (setting [3]) it was 3.56 µM.

Take `CSCC[C@H](NC(=O)[C@@H](Cc1cc[nH]c1)NC(C)=O)C(=O)N[C@@H](CC(=O)O)C(=O)N[C@@H](Cc1cccc(Br)c1)C(N)=O` [HT-181, Ac-D-His-Met-Asp-Phe(3-Br)-NH2]: the EC50 is 3.9 µM in experiment [1] and greater than 10 µM in experiment [2] (setting [4]).

As to `CSCC[C@H](NC(=O)[C@@H](Cc1ccc(O)cc1)NC(C)=O)C(=O)N[C@@H](CC(=O)O)C(=O)N[C@@H](Cc1cccc(Br)c1)C(N)=O` [HT-182, Ac-D-Tyr-Met-Asp-Phe(3-Br)-NH2] (Ac-[dY]MD[Phe(3-Br)]-NH2), the concentration giving a half-maximal response (EC50) was determined as 0.421 µM in experiment [1] and 3.3 µM in experiment [2] (setting [3]).
